Measured values: patent US4318847A, “Physiologically active tetrapeptides” (Zaidan Hojin Biseibutsu Kagaku Kenkyu Kai, priority 1979, dated 1982)

These compounds were tested against glycylprolylleucine tripeptidylaminopeptidase (Gly-Pro-Leu-AP) (assay: Gly-Pro-Leu-AP inhibition assay). Details: enzyme from cell membrane fraction of rat liver, Hanks solution pH 7.2, 37° C., 30 minutes.
Format: biochemical
Description: According to the method of Aoyagi et al. (T. Aoyagi et al: BIOCHIMICA ET BIOPHYSICA ACTA 452, 131-143(1976)), after a reaction mixture consisting of 0.25 ml of 2 mM glycyl-L-α-prolyl-L-α-leucyl-β-naphthylamide (Buchem Fine Chemicals Co.), 0.6 ml of the Hanks solution, pH 7.2, and 0.1 ml of an aqueous test solution was kept at 37° C. for 3 minutes, 0.05 ml of a Gly-Pro-Leu-AP that was purified from the cell membrane fraction of the rat liver was added and the reaction was carried out at 37° C. for 30 minutes. The same procedure as described in (1) was used for calculation of the inhibition percentage.
The Hanks solution listed above was prepared by dissolving 8.0 g sodium chloride, 0.4 g potassium chloride, 0.14 g calcium chloride, 0.10 g magnesium chloride, 0.06 g disodium-monohydrogen phosphate, 0.06 g monopotassium dihydrogen phosphate, 0.10 g magnesium sulfate and 1.0 g glucose in 1 liter of distilled water and adjusting the solution to pH 7.2 with solid sodium bicarbonate (about 350 mg).

| IC/50 Gly--Pro--Leu--AP: amount of the peptide to inhibit the intact activity of the target enzyme by 50% [µg/mL] | SMILES |
| --- | --- |
| 6 | CC(C)C[C@@H](N)[C@H](O)C(=O)N[C@@H](CCC(=O)O)C(=O)N[C@H](C(=O)N[C@@H](CC(=O)O)C(=O)O)C(C)C [X--Glu--Val--Asp, (2S,3R)-AHMHA-Glu-Val-Asp] |
| 15 | CC(C)C[C@@H](N)[C@H](O)C(=O)N[C@H](C(=O)N[C@@H](CCC(=O)O)C(=O)N[C@@H](CC(=O)O)C(=O)O)C(C)C [X--Val--Glu--Asp, (2S,3R)-AHMHA-Val-Glu-Asp] |

What follows are compounds tested against T1, aminopeptidase A (AP-A) (Homo sapiens, UniProt Q07075) (assay: AP-A (E.C. 3,4,11,7) inhibition assay). Details: L-α-glutamyl-β-naphthylamide substrate, pH 7.0, 37° C., 30 minutes; read-out: IC/50 AP--A: amount of the peptide to inhibit the intact activity of the target enzyme by 50% (converted).
T1 construct: an AP-A solution which was obtained by ammonium sulfate fractionation according to the method of Nagatsu et al; from tissue
T1 sequence (Q07075 whole entry): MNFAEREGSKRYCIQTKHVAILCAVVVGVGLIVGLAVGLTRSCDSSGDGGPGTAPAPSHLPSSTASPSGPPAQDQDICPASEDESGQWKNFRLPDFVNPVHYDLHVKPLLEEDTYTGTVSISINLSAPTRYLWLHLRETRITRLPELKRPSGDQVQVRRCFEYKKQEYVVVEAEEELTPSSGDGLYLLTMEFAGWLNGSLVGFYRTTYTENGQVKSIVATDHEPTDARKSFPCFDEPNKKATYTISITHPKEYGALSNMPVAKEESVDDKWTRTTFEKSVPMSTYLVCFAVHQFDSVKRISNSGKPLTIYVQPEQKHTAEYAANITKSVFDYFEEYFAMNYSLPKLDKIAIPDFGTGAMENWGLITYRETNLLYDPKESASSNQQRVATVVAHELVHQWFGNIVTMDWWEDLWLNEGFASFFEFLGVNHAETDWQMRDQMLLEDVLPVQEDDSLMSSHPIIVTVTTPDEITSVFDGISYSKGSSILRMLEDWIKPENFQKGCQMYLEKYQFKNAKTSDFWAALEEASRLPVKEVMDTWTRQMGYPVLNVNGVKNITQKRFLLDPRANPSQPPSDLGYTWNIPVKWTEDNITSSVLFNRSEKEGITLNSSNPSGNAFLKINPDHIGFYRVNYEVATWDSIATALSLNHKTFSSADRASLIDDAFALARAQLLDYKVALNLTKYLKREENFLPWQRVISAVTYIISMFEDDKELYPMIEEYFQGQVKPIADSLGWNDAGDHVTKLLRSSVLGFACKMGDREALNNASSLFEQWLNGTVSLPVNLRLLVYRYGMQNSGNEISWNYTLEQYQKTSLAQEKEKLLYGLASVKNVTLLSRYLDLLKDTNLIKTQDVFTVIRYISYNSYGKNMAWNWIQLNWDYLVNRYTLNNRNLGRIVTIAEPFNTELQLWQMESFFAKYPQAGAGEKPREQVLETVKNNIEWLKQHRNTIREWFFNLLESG
Format: biochemical
Description: That is, 0.25 ml of 2 mM L-α-glutamyl-β-naphthylamide, 0.54 ml of 0.1 M Tris-HCl buffer, pH 7.0, 0.01 ml of 0.1 M calcium chloride and 0.1 ml of a test sample in water were mixed and kept at 37° C. for 3 minutes. The reaction was initiated by addition of 0.1 ml of an AP-A solution which was obtained by ammonium sulfate fractionation according to the method of Nagatsu et al. After incubation at 37° C. for 30 minutes, 1 ml of 1.0 M acetate buffer, pH 4.2, containing 1.0 mg/ml Garnet GBC (orthoaminoazotoluene diazonium salt) and 10% Tween 20 (Atlas Chemical Co., U.S.A.) was added to the reaction solution and then allowed to stand at room temperature for 15 minutes. The absorbance of the test solution (a) was measured at 530 nm. The control solution without the test sample was used as the blank test (absorbance (b)). The inhibition percentage on aminopeptidase A was calculated as [(b-a)/b]x100.

| IC50 [µM] | SMILES |
| --- | --- |
| > 597 | CC(C)C[C@@H](N)[C@H](O)C(=O)N[C@@H](C)C(=O)N[C@@H](C)C(=O)N[C@@H](CC(=O)O)C(=O)O [X--Ala--Ala--Asp] |
| > 905 | CC(C)C[C@@H](N)[C@H](O)C(=O)N[C@@H](CC(=O)O)C(=O)O [X--Asp] |
| 3.96 | CC(C)C[C@@H](N)[C@H](O)C(=O)N[C@@H](CCC(=O)O)C(=O)N[C@H](C(=O)N[C@@H](CC(=O)O)C(=O)O)C(C)C [X--Glu--Val--Asp, (2S,3R)-AHMHA-Glu-Val-Asp] |
| 10.2 | CC(C)C[C@H](NC(=O)[C@@H](O)[C@H](N)CC(C)C)C(=O)N[C@H](C(=O)N[C@@H](CC(=O)O)C(=O)O)C(C)C [X--Leu--Val--Asp, (2S,3R)-AHMHA-Leu-Val-Asp] |
| 2.98 | CC(C)C[C@@H](N)[C@H](O)C(=O)N[C@@H](CCCCN)C(=O)N[C@H](C(=O)N[C@@H](CC(=O)O)C(=O)O)C(C)C [X--Lys--Val--Asp, (2S,3R)-AHMHA-Lys-Val-Asp] |
| 3.9 | CC(C)C[C@@H](N)[C@H](O)C(=O)N[C@@H](CCCCN)C(=O)N[C@H](C(=O)N[C@H](C(=O)O)C(C)C)C(C)C [X--Lys--Val--Val, (2S,3R)-AHMHA-Lys-Val-Val] |
| 774 | CC(C)C[C@@H](N)[C@H](O)C(=O)N1CCC[C@H]1C(=O)O [X--Pro] |
| 0.315 | CC(C)C[C@@H](N)[C@H](O)C(=O)N[C@H](C(=O)N[C@H](C(=O)N[C@@H](CC(=O)O)C(=O)O)C(C)C)[C@@H](C)O [X--Thr--Val--Asp, (2S,3R)-AHMHA-Thr-Val-Asp] |
| 32 | CC(C)C[C@@H](N)[C@H](O)C(=O)N[C@H](C(=O)N[C@@H](CC(=O)O)C(=O)O)C(C)C [X--Val--Asp] |
| 15.9 | CC(C)C[C@@H](N)[C@H](O)C(=O)N[C@H](C(=O)N[C@@H](CCC(=O)O)C(=O)N[C@@H](CC(=O)O)C(=O)O)C(C)C [X--Val--Glu--Asp, (2S,3R)-AHMHA-Val-Glu-Asp] |
| 0.614 | CC(C)C[C@H](NC(=O)[C@@H](NC(=O)[C@@H](O)[C@H](N)CC(C)C)C(C)C)C(=O)N[C@@H](CC(=O)O)C(=O)O [X--Val--Leu--Asp, (2S,3R)-AHMHA-Val-Leu-Asp] |
| 19.9 | CC(C)C[C@@H](N)[C@H](O)C(=O)N[C@H](C(=O)N[C@@H](CCCCN)C(=O)N[C@@H](CC(=O)O)C(=O)O)C(C)C [X--Val--Lys--Asp, (2S,3R)-AHMHA-Val-Lys-Asp] |

What follows are compounds tested against glycylhistidyllysine tripeptidylaminopeptidase (Gly-His-Lys-AP) (assay: Gly-His-Lys-AP inhibition assay). Details: enzyme from FM3A cells (mouse mammary tumor), Hanks solution pH 7.2, 37° C., 30 minutes.
Format: biochemical
Description: For enzyme assay, 0.25 ml of 0.5 mM glycyl-L-α-histidyl-L-α-lysyl-β-naphthylamide, 0.62 ml of the Hanks solution, pH 7.2, and 0.1 ml of an aqueous solution of a substance to be tested were combined and maintained at 37° C. for 3 minutes. Gly-His-Lys-AP solution (0.03 ml) which was purified from the FM3A cells (a line of culture cells derived from mouse mammary tumor) by the method described in the reference of (4) was added to the solution and incubated at 37° C. for 30 minutes. The inhibition percentage was calculated as shown in (1).
Gly-His-Lys -β-naphthylamide used above was prepared as follows: to a solution containing 1 g of Gly-His-Lys-acetate (Buchem Fine Chemicals Co.) and 3.0 g of sodium bicarbonate in 60 ml of distilled water, 2.13 ml of Z-Cl was added dropwise under cooling with ice and then stirred for 3 hours. The same treatment as detailed above in Experiment 1-(7) was performed to give 605.8 mg of the Z-derivative of the tripeptide. […]

| IC/50 Gly--His--Lys--AP: amount of the peptide to inhibit the intact activity of the target enzyme by 50% [µg/mL] | SMILES |
| --- | --- |
| 2.0 | CC(C)C[C@@H](N)[C@H](O)C(=O)N[C@@H](CCC(=O)O)C(=O)N[C@H](C(=O)N[C@@H](CC(=O)O)C(=O)O)C(C)C [X--Glu--Val--Asp, (2S,3R)-AHMHA-Glu-Val-Asp] |
| 100 | CC(C)C[C@@H](N)[C@H](O)C(=O)N[C@H](C(=O)N[C@@H](CCC(=O)O)C(=O)N[C@@H](CC(=O)O)C(=O)O)C(C)C [X--Val--Glu--Asp, (2S,3R)-AHMHA-Val-Glu-Asp] |

What follows are compounds tested against T2, leucine aminopeptidase (Leu-AP) (Sus scrofa, UniProt P28839) (assay: Leu-AP (E.C. 3,4,11,1) inhibition assay). Details: Leu-AP (Boehringer-Mannheim), leucyl-β-naphthylamide substrate, pH 7.6, 37° C., 30 minutes; read-out: IC/50 Leu--AP: amount of the peptide to inhibit the intact activity of the target enzyme by 50% (converted).
T2 construct: purchased Boehringer-Mannheim Co
T2 sequence (P28839 1-519): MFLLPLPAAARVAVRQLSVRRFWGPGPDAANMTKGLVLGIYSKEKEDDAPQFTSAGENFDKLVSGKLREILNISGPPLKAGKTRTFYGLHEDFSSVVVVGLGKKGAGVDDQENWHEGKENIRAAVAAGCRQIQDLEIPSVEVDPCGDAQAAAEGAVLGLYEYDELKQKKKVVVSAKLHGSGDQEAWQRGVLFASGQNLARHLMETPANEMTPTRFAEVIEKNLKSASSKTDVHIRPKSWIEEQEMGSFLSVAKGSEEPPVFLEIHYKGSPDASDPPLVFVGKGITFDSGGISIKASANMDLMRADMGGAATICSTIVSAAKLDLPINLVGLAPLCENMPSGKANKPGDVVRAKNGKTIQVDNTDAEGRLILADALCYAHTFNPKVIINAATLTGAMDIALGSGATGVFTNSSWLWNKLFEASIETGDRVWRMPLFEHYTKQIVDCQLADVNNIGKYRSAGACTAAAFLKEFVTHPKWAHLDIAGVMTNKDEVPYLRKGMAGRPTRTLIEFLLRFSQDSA
Format: biochemical
Description: For enzyme assay, 0.25 ml of 2 mM […], 0.6 ml of 0.1 M Tris-HCl buffer, pH 7.6, and 0.1 ml of an aqueous solution containing a test compound were mixed and allowed to stand at 37° C. for 3 minutes. After a 20-fold dilution of Leu-AP (Boehringer-Mannheim Co.) in 0.1 M Tris-HCl buffer, pH 7.6 (0.05 ml) was added to the solution, the reaction was performed at 37° C. for 30 minutes. The inhibition percentage was measured as detailed in (1).

| IC50 [µM] | SMILES |
| --- | --- |
| > 597 | CC(C)C[C@@H](N)[C@H](O)C(=O)N[C@@H](C)C(=O)N[C@@H](C)C(=O)N[C@@H](CC(=O)O)C(=O)O [X--Ala--Ala--Asp] |
| 105 | CC(C)C[C@@H](N)[C@H](O)C(=O)N[C@@H](CC(=O)O)C(=O)O [X--Asp] |
| 79.3 | CC(C)C[C@@H](N)[C@H](O)C(=O)N[C@@H](CCC(=O)O)C(=O)N[C@H](C(=O)N[C@@H](CC(=O)O)C(=O)O)C(C)C [X--Glu--Val--Asp, (2S,3R)-AHMHA-Glu-Val-Asp] |
| 0.614 | CC(C)C[C@H](NC(=O)[C@@H](O)[C@H](N)CC(C)C)C(=O)N[C@H](C(=O)N[C@@H](CC(=O)O)C(=O)O)C(C)C [X--Leu--Val--Asp, (2S,3R)-AHMHA-Leu-Val-Asp] |
| 218 | CC(C)C[C@@H](N)[C@H](O)C(=O)N[C@@H](CCCCN)C(=O)N[C@H](C(=O)N[C@@H](CC(=O)O)C(=O)O)C(C)C [X--Lys--Val--Asp, (2S,3R)-AHMHA-Lys-Val-Asp] |
| 369 | CC(C)C[C@@H](N)[C@H](O)C(=O)N[C@@H](CCCCN)C(=O)N[C@H](C(=O)N[C@H](C(=O)O)C(C)C)C(C)C [X--Lys--Val--Val, (2S,3R)-AHMHA-Lys-Val-Val] |
| 83.2 | CC(C)C[C@@H](N)[C@H](O)C(=O)N1CCC[C@H]1C(=O)O [X--Pro] |
| 5.25 | CC(C)C[C@@H](N)[C@H](O)C(=O)N[C@H](C(=O)N[C@H](C(=O)N[C@@H](CC(=O)O)C(=O)O)C(C)C)[C@@H](C)O [X--Thr--Val--Asp, (2S,3R)-AHMHA-Thr-Val-Asp] |
| 0.799 | CC(C)C[C@@H](N)[C@H](O)C(=O)N[C@H](C(=O)N[C@@H](CC(=O)O)C(=O)O)C(C)C [X--Val--Asp] |
| 0.198 | CC(C)C[C@@H](N)[C@H](O)C(=O)N[C@H](C(=O)N[C@@H](CCC(=O)O)C(=O)N[C@@H](CC(=O)O)C(=O)O)C(C)C [X--Val--Glu--Asp, (2S,3R)-AHMHA-Val-Glu-Asp] |
| 1.43 | CC(C)C[C@H](NC(=O)[C@@H](NC(=O)[C@@H](O)[C@H](N)CC(C)C)C(C)C)C(=O)N[C@@H](CC(=O)O)C(=O)O [X--Val--Leu--Asp, (2S,3R)-AHMHA-Val-Leu-Asp] |
| 6.95 | CC(C)C[C@@H](N)[C@H](O)C(=O)N[C@H](C(=O)N[C@@H](CCCCN)C(=O)N[C@@H](CC(=O)O)C(=O)O)C(C)C [X--Val--Lys--Asp, (2S,3R)-AHMHA-Val-Lys-Asp] |
